What was measured:
Type in all cases: cell-based
IRK1 channel = molecular target: T1, IRK1 channel (Mus musculus, UniProt P35561); experiment: whole-cell patch clamp, HEK293T cells transfected with IRK1; settings: n=5; for inhibition of IRK1 channel, percentage inhibition: equimolar 50 mM alcohol series
T1 construct: expressed in transfected cells; host or cells: HEK293T
T1 sequence (P35561 1-428): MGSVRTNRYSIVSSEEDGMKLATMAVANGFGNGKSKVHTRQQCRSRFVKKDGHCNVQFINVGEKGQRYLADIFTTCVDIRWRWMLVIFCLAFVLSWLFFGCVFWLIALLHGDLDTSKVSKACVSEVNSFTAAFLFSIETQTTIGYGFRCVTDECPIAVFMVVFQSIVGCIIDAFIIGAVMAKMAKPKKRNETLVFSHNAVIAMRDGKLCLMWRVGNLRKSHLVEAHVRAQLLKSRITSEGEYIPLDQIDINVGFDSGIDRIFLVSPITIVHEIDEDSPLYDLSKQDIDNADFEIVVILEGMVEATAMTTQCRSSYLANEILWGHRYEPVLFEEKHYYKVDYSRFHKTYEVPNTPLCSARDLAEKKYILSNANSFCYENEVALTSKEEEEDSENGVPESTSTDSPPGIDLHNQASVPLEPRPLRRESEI
Experimental: Using whole-cell patch clamp, technique in HEK293T cells transfected with IRK1 or GIRK2 channels, it was determined that MPD does in fact modulate these channels. Addition of 100 mM MPD inhibits the inward currents of the IRK1 channel, without changing the reversal potential or altering inward rectification (FIG. 1e).
GIRK2c, GIRK4, IRK1, M2R and m-Phosducin were subcloned into PCDNA3.1 vector (Invitrogen). Point mutations were introduced by Quickchange site directed mutagenesis kit (Stratagene). The GIRK2 PIP mutant was generated by overlap-PCR method. Briefly, amino acid 216-NLRKSHL-222 (SEQ ID NO: 25) of IRK1 was swapped into 228-DLRNSHL-234 (SEQ ID NO: 26) of GIRK2, in the region designated βC-βD loop in the crystal structure. Mutations were confirmed by automated DNA sequencing methods.
HEK 293T cells were cultured in DMEM supplemented with 10% FBS, and 1× Glutamax (Invitrogen) in a humidified 37° incubator with 5% CO2. Cells were plated in a 12 well dish, and were transiently transfected using Lipofectamine 2000 (Invitrogen). After 12-24 hrs, cells were re-plated to 12-mm glass coverslips coated with poly-D-Lysine (20 microgram/ml).
HEK293 cells were transfected with 0.2 micrograms of channel cDNA. The cells were co-transfected with 0.04 micrograms of eYFP cDNA to identify transfected cells. 0.8 micrograms of Muscarinic Receptor 2 (M2R) was also co-transfected for experiments with Carbachol. For experiments with and without m-phosducin, 0.8 ug of m-phosducin cDNA was used versus a PCDNA3.1 vector control.
Whole-cell patch clamp recordings were performed 24-72 hrs after transfection. Borosilicate glass electrodes (Warner Instruments) of […] filled with intracellular solution (130 mM KCl, 20 mM NaCl, 5 mM EGTA, 2.56 mM K2ATP, 5.46 mM MgCl2, 0.30 mM Li2GTP, and 10 mM HEPES (pH 7.4)) was used. Membrane currents were recorded using Axopatch 200B (Axon Instruments) amplifier, adjusted electronically for cell capacitance and series resistance (80-100%), filtered at 1 kHz with an 8-pole Bessel filter and digitized at 5 kHz with a Digidata 1200 interface (Axon Instruments). The cells rapidly perfused with a 20 mM K^+ (20K) solution (20 mM KCl, 140 mM NaCl, 0.5 mM CaCl2, 2 mM MgCl2 and 10 mM HEPES (pH7.4)). Alcohols, 5 μM Carbachol, and 1 mM BaCl2 (diluted in 20K solution) were applied from outside the cell with the rapid perfusion system (Warner Instruments). Whole-cell currents were measured using a ramp protocol that holds at −40 mV, steps to −100 mV then ramps to +50 mV and repeats every 2 seconds. Current-voltage relationships also were obtained from the ramp protocol. This protocol was used to measure the inwardly rectifying currents at −100 mV and to ensure stability of recording by monitoring a reversal potential and inward rectification. Current density was measured by dividing inward current at −100 mV by membrane capacitance that was compensated during the recording. Basal currents were measured as the Ba^++ blocked inward currents at −100 mV. Alcohol and Carbachol modulated currents were measured by averaging two consecutive current readings upon reaching steady state, and subtracting the averaged basal current before and after the application of modulator. Pooled data are presented as Mean±SEM and evaluated for statistical significance by a 1-way ANOVA, followed by Bonferroni's multiple comparison post-hoc test.

[1] = system: GIRK2 L257Y mutant channel; experiment: whole-cell patch clamp, GIRK2 L257Y mutant channel; settings: n=9; for activation of GIRK2 L257Y, percentage change from basal current: alcohols as for wild type (100 mM)
Experimental: (§1) Point mutations were introduced by Quickchange site directed mutagenesis kit (Stratagene). The GIRK2 PIP mutant was generated by overlap-PCR method. […] Mutations were confirmed by automated DNA sequencing methods. […] Cells were plated in a 12 well dish, and were transiently transfected using Lipofectamine 2000 (Invitrogen). After 12-24 hrs, cells were re-plated to 12-mm glass coverslips coated with poly-D-[…] microgram/ml). […] The cells were co-transfected with 0.04 micrograms of eYFP cDNA to identify transfected cells. 0.8 micrograms of Muscarinic Receptor 2 (M2R) was also co-transfected for experiments with Carbachol. […] Whole-cell patch clamp recordings were performed 24-72 hrs after transfection. […] Alcohols, 5 μM Carbachol, and 1 mM BaCl2 (diluted in 20K solution) were applied from outside the cell with the rapid perfusion system (Warner Instruments). […] Current-voltage relationships also were obtained from the ramp protocol. This protocol was used to measure the inwardly rectifying currents at -100 mV and to ensure stability of recording by monitoring a reversal potential and inward rectification. […] Alcohol and Carbachol modulated currents were measured by averaging two consecutive current readings upon reaching steady state, and subtracting the averaged basal current before and after the application of modulator.

GIRK4 = molecular target: T2, GIRK4 (Rattus norvegicus, UniProt P48548); experiment: whole-cell patch clamp, GIRK4 homo-tetramers; settings: n=7
T2 construct: expressed in transfected cells; host or cells: HEK293 / HEK293T
T2 sequence (P48548 1-419): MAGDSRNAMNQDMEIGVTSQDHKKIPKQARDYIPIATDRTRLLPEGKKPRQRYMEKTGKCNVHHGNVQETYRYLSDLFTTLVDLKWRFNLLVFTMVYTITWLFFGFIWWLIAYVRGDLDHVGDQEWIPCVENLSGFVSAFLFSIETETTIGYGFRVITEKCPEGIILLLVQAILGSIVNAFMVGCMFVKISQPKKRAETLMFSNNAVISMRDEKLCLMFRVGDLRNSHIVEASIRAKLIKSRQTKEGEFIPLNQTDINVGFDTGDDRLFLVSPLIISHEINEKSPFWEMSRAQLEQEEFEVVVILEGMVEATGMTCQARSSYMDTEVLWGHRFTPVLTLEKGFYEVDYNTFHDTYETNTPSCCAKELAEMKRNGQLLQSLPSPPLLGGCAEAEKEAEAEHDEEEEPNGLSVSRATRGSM
Experimental: as §1

| Compound | inhibition at 100000 µM (IRK1 channel; HEK-293T, 100 mM MPD, -100 mV, read-out: percent change of basal current, IRK) [%] | inhibition of IRK1 channel, percentage inhibition (IRK1 channel) [%] | activation of GIRK2 L257Y, percentage change from basal current [1] [%] | modulation of GIRK4 currents, mean percentage change from basal (negative = inhibition) (GIRK4) [%] | Carbachol activation, GIRK2 L257Y, percentage change from basal current ([1]; 5 μM Carbachol, M2R co-transfected) [%] |
| --- | --- | --- | --- | --- | --- |
| CC(O)CC(C)(C)O (racemic) [MPD, 2-methyl-2,4-pentanediol] | 32.5 ± 3.9 | −25±3 | 73±10 | 55±8 |  |
| 1-butanol [1-BuOH] |  | −20±3 |  | −70±3 |  |
| C[N+](C)(C)CCOC(N)=O [Carbachol] |  |  |  |  | 38±11 |
| 1-propanol [1-PrOH] |  | −12±2 | 275±34 | 43±7 |  |
| CCO [EtOH, ethanol] |  | −5±1 | 92±10 | 43±6 |  |

Reference: US8097422B2, “Kir channel modulators” (Salk Institute for Biological Studies, priority 2007, dated 2012)
